# Results as given in US6303619A, “Meta-substituted acidic 8-phenylxanthine antagonists of A3 human adenosine receptors” (priority 1998, dated 2001).
# “Also recorded” adds a separate entry of the source.
# Key:
# A1 adenosine receptor = details: cited from earlier work
# A2B adenosine receptor = details: cited from earlier work
# [1] = target: T1, human A3 adenosine receptor (Homo sapiens, UniProt P0DMS8); details: cited from earlier work
# T1 construct: clone HS-21a contained the complete open reading frame corresponding to the human homolog of the rat A3 adenosine receptor; expressed in transfected cells; host or cells: CHO cells stably transfected with HS-21a cDNA
# T1 sequence (P0DMS8 1-318): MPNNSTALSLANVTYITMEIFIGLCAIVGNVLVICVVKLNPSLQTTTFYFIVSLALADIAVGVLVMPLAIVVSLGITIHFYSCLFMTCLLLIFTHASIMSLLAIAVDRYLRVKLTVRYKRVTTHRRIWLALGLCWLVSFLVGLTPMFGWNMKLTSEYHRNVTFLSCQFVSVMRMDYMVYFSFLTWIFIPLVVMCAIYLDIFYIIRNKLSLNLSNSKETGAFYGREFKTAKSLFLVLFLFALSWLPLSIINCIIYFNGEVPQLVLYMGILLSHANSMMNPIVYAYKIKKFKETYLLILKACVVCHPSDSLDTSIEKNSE
# A2A adenosine receptor = details: cited from earlier work
# [2] = test system: receptor exhibiting an agonist pharmacological profile thought to be characteristic of the rat A3 subtype; details: angiotensin II-supported pithed rat; cited from earlier work
# [3] = test system: sheep A3 adenosine receptor; details: cited from earlier work
# [4] = test system: sheep A3 adenosine receptor; details: cited from earlier work; remark: listed apart in the source
# [5] = target: T1, human A3 adenosine receptor; assay: 125I-ABA binding to membranes of stably transfected CHO cells expressing the human A3 adenosine receptor (HS-21a); details: for potency order of antagonists / potency order of agonists: order in words/symbols
# Experimental: Membranes were prepared from transiently transfected COS7 cells […] after transfection or from G418-selected stably transfected CHO or HEK 293 cells. Cells were harvested in 1 mM EDTA in phosphate buffered saline and centrifuged at 2000×g for 10 minutes. The cell pellet was washed once with phosphate buffered saline. The cell pellet was resuspended in 2 mL of 5 mM Tris, pH 7.6/5mM MgCl2. Membranes were prepared from the cells by freeze-thaw lysis in which the suspension was frozen in a dry ice/ethanol bath and thawed at 25° C. twice. The suspension was homogenized after adding an additional 2 mL of 5 mM Tris, pH 7.6/5 mM MgCl2, in a glass dounce homogenizer with 20 strokes. The membranes were pelleted at 40,000×g at 4° C. for 20 minutes. The membrane pellet was resuspended at a protein concentration of 1-2 mg/mL in binding assay buffer, 50 mM Tris, pH 7.6/10 mM MgCl2. Protein concentration was determined by the method of Bradford ((1976) Anal. Biochem. 72: 248-250). […] Saturation binding of [^125 I]-N^6 -aminiobenizyladenosine (125I-ABA) or [^125 I]-N^6 -2-(4-amino-3-iodophenyl)ethyladenosine (APNEA) was performed on membranes prepared from pSVLA3 transfected COS7 cells. Membranes (100 μg) were incubated in the presence of 0.2 U/mL adenosine deaminase with increasing concentrations of ^125 I-ABA in the range of 0.1-30 nM for 120 minutes at 25° C. in a total volume of 500 μl. The binding assay was terminated by rapid filtration and three washes with ice-cold 50 mM Tris, pH 7.6/10 mM MgCl2 on a Skatron cell harvester equipped with a receptor binding flitermat (SKATRON INSTRUMENTS, INC). Non-specific binding was determined on non-transfected cells. Bound radioactivity was measured by scintillation counting in Ready Safe Scintillation Cocktail (BECKMAN).
# The 1.7 kb HS-21a cDNA (A3) was subcloned as a SalI-BamHl fragment into the expression vector pCMV5 (Mumby, S. M., Heukeroth, R. O., Gordon, J. I. and Gilman, A. G. (1990) Proc. Natl. Acad. Sci. USA 87, 728-732.) creating the vector pCMV5-A3. CHO or HEK 293 cells stably expressing the human HS-21 a cDNA were prepared by co-transfection of 15 μg pCMV5-A3 and 1 μg pWLneo (Stratagene) using the calcium phosphate method. Stable cell lines were also generated using EBV based mammalian expression vectors, pREP (INVITROGEN). Neomycin resistant colonies were selected in 1 mg/mL G418 (GIBCO). Stable colonies were screened for expression of HS-21a by ^125 I-ABA binding.
# Membranes were prepared from stable CHO cell lines in 10 mM Hepes, pH 7.4 containing 0.1 mM benzamidine and 0.1 mM PMSF as described (Mahan, L. C. et al., (1991) Mol. Pharinacol. 40, 1-7). Pellets were resuspended in 5 mM Hepes, pH 7.4/5 mM MgCl2 /0.1 mM benzarnidine/0.1 mM PMSF at a protein concentration of 1-2 mg/mL and were incubated with adenosine deaminase (Boehringer Mannheim), 2 U/mL at 37° C. for 20 minutes. Saturation binding of ^125 I-ABA was carried out on 50 μg of membranes for 120 minutes at 25° C. in a total volume of 100 μl. The assay was terminated by rapid filtration and three washes with ice-cold binding buffer on a Skatron harvester equipped with a receptor binding filtermat (Skatron Instruments, Inc.). The specific activity of ^125 I-ABA, initially 2,200 Ci/mmol, was reduced to 100 Ci/mmol with nonradioactive I-ABA for saturation analysis. Nonspecific binding was measured in the presence of 1 uM I-ABA. The KD and Bmax values were calculated by the EBDA program (McPherson, G. A. (1983) Computer Programs for Biomedicine 17, 107-114). Competition binding of agonists and antagonists was determined with ^125 I-ABA (0.17-2.0 nM, 2000 Ci/mmol). […] Binding data were analyzed and competition curves were constructed by use of the nonlinear regression curve fitting program Graph PAD InPlot, Version 3.0 (Graph Pad Software, San Diego).
# [6] = test system: rat A3 adenosine receptor; details: cited from earlier work
# [7] = target: T1, human A3 adenosine receptor; assay: inhibition of forskolin-stimulated cAMP accumulation in stably transfected CHO cells expressing the human A3 receptor; type: cell-based; details: stably transfected CHO cells, human A3
# Experimental: The human A3 adenosine receptor from a striatal cDNA library can be cloned using a probe derived from the homologous rat sequence.
# cAMP Accumulation in Stable CHO Cell Lines
# The changes in cAMP accumulation can alternatively be measured in stably transfected CHO cells expressing the human adenosine receptor subtypes. CHO cells are washed twice in phosphate buffered saline (PBS) and detached in 0.2% EDTA in PBS. The cells are pelleted at 800 rpm for 10 min and resuspended in KRH buffer (140 mM NaCl/5 mM KCl/2 mM CaCl2 /1.2 mM MgSO4 /1.2 mM KH2 PO4 /6 mM glucose/25 mM Hepes buffer, pH 7.4). The cells are washed once in KRH buffer and resuspended at 10^7 cells/mL. The cell suspension (100 μl) is mixed with 100 μl of KRH buffer containing 200 uM Ro 20-1724 and incubated at 37° C. for 10 minutes. Adenosine (10 uM) was added in 200 μl KRH buffer containing 200 uM Ro 20-1724 and incubated at 37° C. for 20 minutes. After the incubation, 400 μl of 0.5 mM NaOAc (pH 6.2) was added and the sample was boiled for 20 minutes. The supernatant was recovered by centrifugation for 15 minutes and stored at -70° C. cAMP levels were determined by radiommunoassay (RIANEN kit, DuPont/NEN) using the to acetylation protocol. The effect of antagonists on cAMP accumulation are measured by preincubation for 20 minutes before adding adenosine.
# [8] = test system: rat A3 adenosine receptor; details: cited from earlier work; remark: listed apart in the source
# A3 adenosine receptor = details: animal model; Jin et al. 1997; cited from earlier work
# [9] = test system: myocardial ischemic injury; details: inhibitor of mast cell degranulation; cited from earlier work
# asthmatics = details: cited from earlier work
smiles,measurement,setting,value
Cn1c(=O)c2[nH]c(-c3ccc(S(=O)(=O)O)cc3)nc2n(C)c1=O [8-(para-sulfophenyl)theophylline],action on A1 subtype,A1 adenosine receptor,broad action
same,action on A2B subtype,A2B adenosine receptor,broad action
same,blockade of human A3 receptor,[1],blocks
same,action on A2A subtype,A2A adenosine receptor,broad action
same,sensitivity of hypotension to blockade,[2],insensitive to blockade
same,blockade of sheep A3 receptor,[3],blocks
"Nc1ccc(CCNc2ncnc3c2ncn3[C@@H]2O[C@H](CO)[C@@H](O)[C@H]2O)cc1I [APNEA, N^6-2-(4-amino-3-iodophenyl)ethyladenosine]",agonist affinity order,[4],I-ABA>APNEA>NECA≥R-PIA>>CPA
"CCCn1c(=O)c2[nH]c(-c3ccc(C=CC(=O)O)cc3)nc2n(CCC)c1=O [BW-A1433, 1,3-dipropyl-8-(4-acrylate) phenylxanthine]",potency order of antagonists,[5]; human A3,"I-ABOPX>1,3-dipropyl-8-(4-acrylate) phenylxanthine (BW-A1433)≥xanthine amino cogener (XAC)>>1,3-dipropyl-8-cyclopentylxanthine (DPCPX)"
CCNC(=O)[C@H]1O[C@@H](n2cnc3c(N)nc(NCCc4ccc(CCC(=O)O)cc4)nc32)[C@H](O)[C@@H]1O [CGS21680],potency order for inhibition of cyclic AMP accumulation,[6],NECA=R-PIA>CGS21680
"OC[C@H]1O[C@@H](n2cnc3c(NC4CCCC4)ncnc32)[C@H](O)[C@@H]1O [CPA, N^6 -cyclopentyladenosine]",Ki,"[5]; competition with 125I-ABA (FIG. 3a), read-out: Ki, agonists",89 nM
same,potency order of agonists,[5]; human A3,N-ethylcarboxamidoadenosine (NECA)≥R-phenylisopropyladenosine(R-PIA)>N^6 -cyclopentyladenosine (CPA)>S-p-benylisopropyladenosine (S-PIA); also recorded: NECA>R-PIA>CPA>S-PLA
same,agonist affinity order,[4],I-ABA>APNEA>NECA≥R-PIA>>CPA
same,inhibition of forskolin-stimulated cAMP accumulation,[7],30-40%
"CCCn1c(=O)c2[nH]c(C3CCCC3)nc2n(CCC)c1=O [DPCPX, 1,3-dipropyl-8-cyclopentylxanthine]",binding to rat A3 receptor,[8],not to bind
same,potency order of antagonists,[5]; human A3,"I-ABOPX>1,3-dipropyl-8-(4-acrylate) phenylxanthine (BW-A1433)≥xanthine amino cogener (XAC)>>1,3-dipropyl-8-cyclopentylxanthine (DPCPX)"
CCCn1c(=O)c2[nH]c(-c3ccc(OCC(=O)O)cc3)nc2n(Cc2ccc(N)c(I)c2)c1=O [I-ABOPX],A3 antagonist affinity in words,[5]; human A3,highest affinity para-substituted antagonist yet reported for A3 adenosine receptors
same,potency order of antagonists,[5]; human A3,"I-ABOPX>1,3-dipropyl-8-(4-acrylate) phenylxanthine (BW-A1433)≥xanthine amino cogener (XAC)>>1,3-dipropyl-8-cyclopentylxanthine (DPCPX)"
"CCNC(=O)[C@H]1O[C@@H](n2cnc3c(N)ncnc32)[C@H](O)[C@@H]1O [NECA, N-ethylcarboxamidoadenosine]",potency order for inhibition of cyclic AMP accumulation,[6],NECA=R-PIA>CGS21680
same,prevention of specific binding of 125I-ABA,[5]; 400 uM NECA,prevented
same,potency order of agonists,[5]; human A3,N-ethylcarboxamidoadenosine (NECA)≥R-phenylisopropyladenosine(R-PIA)>N^6 -cyclopentyladenosine (CPA)>S-p-benylisopropyladenosine (S-PIA); also recorded: NECA>R-PIA>CPA>S-PLA
same,agonist affinity order,[4],I-ABA>APNEA>NECA≥R-PIA>>CPA
same,inhibition of forskolin-stimulated cAMP accumulation,[7],30-40%
C[C@H](Cc1ccccc1)Nc1ncnc2c1ncn2[C@@H]1O[C@H](CO)[C@@H](O)[C@H]1O [R-PIA],potency order for inhibition of cyclic AMP accumulation,[6],NECA=R-PIA>CGS21680
same,potency order of agonists,[5]; human A3,N-ethylcarboxamidoadenosine (NECA)≥R-phenylisopropyladenosine(R-PIA)>N^6 -cyclopentyladenosine (CPA)>S-p-benylisopropyladenosine (S-PIA); also recorded: NECA>R-PIA>CPA>S-PLA
same,agonist affinity order,[4],I-ABA>APNEA>NECA≥R-PIA>>CPA
same,inhibition of forskolin-stimulated cAMP accumulation,[7],30-40%
"C[C@@H](Cc1ccccc1)Nc1ncnc2c1ncn2[C@@H]1O[C@H](CO)[C@@H](O)[C@H]1O [S-PIA, (R,S)-N^6-phenyl-2-propyladenosine]",potency order of agonists,[5]; human A3,N-ethylcarboxamidoadenosine (NECA)≥R-phenylisopropyladenosine(R-PIA)>N^6 -cyclopentyladenosine (CPA)>S-p-benylisopropyladenosine (S-PIA); also recorded: NECA>R-PIA>CPA>S-PLA
same,inhibition of forskolin-stimulated cAMP accumulation,[7],30-40%
CCCn1c(=O)c2[nH]c(-c3ccc(OCC(=O)NCCN)cc3)nc2n(CCC)c1=O [XAC],binding to rat A3 receptor,[8],not to bind
"Nc1ccc(CCNc2ncnc3c2ncn3[C@@H]2O[C@H](CO)[C@@H](O)[C@H]2O)cc1[125I] [^125 I-APNEA, N^6-2-(4-amino-3^125 iodophenyl)ethyladenosine]",binding to rat A3 receptor,[8],bind
same,non-specific binding to CHO cell membranes,"[5]; 125I-APNEA, preliminary experiments",high non-specific
OC[C@H]1O[C@@H](n2cnc3c(O)ncnc32)[C@H](O)[C@@H]1O [inosine],induction of mast cell degranulation,A3 adenosine receptor,induce mast cell degranulation
N#Cc1cc(NC(=O)C(=O)O)c(Cl)c(NC(=O)C(=O)O)c1 [lodoxamide],reduction of myocardial ischemic injury,[9],reduces myocardial ischemic injury
Cn1c(=O)c2[nH]cnc2n(C)c1=O [theophylline],antagonism of adenosine-induced bronchoconstriction,asthmatics,antagonized
